System: APOE*3Leiden mice
Test: Effects on lipid metabolism in vivo, APOE*3Leiden mice on Western-type diet
Conditions: female heterozygous APOE*3Leiden mice, oral admix to Western-type diet, plasma after 4 hour fast, delta = level at t=0 minus level at t=3, doses 565 (Group 2), 497 (Group 3), 1 (Group 4) mg/kg bw/d
Protocol: The invented compositions were tested in an animal model as described below.
Female heterozygous APOE*3Leiden mice was used, and housed during the experiment in macrolon cages (three or four mice per cage), in clean-conventional animal rooms (relative humidity 50-60%, temperature ˜21° C., light cycle 7 am to 7 pm). Individual animals were marked by ear punch-holes. Mice were supplied with food and acidified tap water ad libitum.
The mice received a semi-synthetic modified Western-type diet (WTD) as described by Nishina et al (J Lipid Res 1990; 31: 859), containing cholesterol (0.25% w/w, final concentration) and 15% cacaobutter.
All test compounds were administered orally as admix to the Western-type diet. The lyophilized diet chunks were stored in vacuum bags in the dark in an alarm-secured −20° C. room. The diets on the cages of the mice were changed twice a week.
APOE*3Leiden mice were put on a semi-synthetic Western-type diet (WTD, 15% cocoa butter, 40% sucrose and 0.25% cholesterol; all w/w). After a 4 weeks run-in period low-responder mice were removed from the study and the remaining mice were sub-divided into five groups of 10 mice each, matched for plasma cholesterol, triglycerides, free fatty acids and age (t=0) […]
After 3 weeks of treatment (t=3 weeks) blood samples were taken after 4 hour-fast period and plasma total cholesterol (TC), total triglycerides (TG) were measured. […]

## CC(C)OC(=O)C(C)(C)Oc1ccc(C(=O)c2ccc(Cl)cc2)cc1 [Group 4, Fenofibrate]
  Delta cholesterol plasma levels (delta TC) after treatment period of 3 weeks, Mean (delta TC): 4.71
  Delta triglyceride plasma levels (delta TG) after treatment period of 3 weeks, Mean (delta TG): 1.16

Reference: patent US20100266681A1, “FATTY ACID ALCOHOLS” (priority 2006, published 2010)
